Results on one substance are retold here after patent US7597904B2, “Metalloproteinase inhibitory agent” (Nestec S.A., priority 2004, dated 2009).

The subject of data set [1] is HT-29 cells. Description: Proliferation assay of HT-29 cells with caseinate hydrolysates and fractions (neutral red, OD 540 nm). Format: cell-based, human. The method, then: Culture of Human Intestinal Epithelial Cells (IECs) and Proliferation Assay
• Human colonic adenocarcinoma cell line HT29 (ATCC: HTB-38) from the American Type Culture Collection (ATCC, Manassas, Va.). • DMEM, high glucose (4.5 g/l), with stable glutamine (BioConcept, AMIMED, Allschwil, Switzerland)
Undifferentiated cells (passages 45-78) were maintained in glucose-containing DMEM supplemented with 10% FCS at 37° C. in a 5% CO2/air incubator. Culture medium was changed every two days until the cell monolayers reached 50% confluence. For stimulation assays, HT-29 cells were plated at 1.2*10^4 cells/well in 96-well flat-bottom plates. After incubation for 4 days, the amount of cells present in the wells before incubation with the samples was assessed adding neutral red solution in 4 wells and incubating the plate for 45 min. The HT-29 cells were then washed twice with serum-free media (inclusive the wells with neutral red solution). The wells colored with neutral red remained from now on free of any media.
HT-29 cells were then incubated 24 hours respectively in the presence of 80 μg (hydrolysed) sodium caseinate samples in 200 μl DMEM, in 200 μl serum-free medium (blank), in 200 μl medium with serum (positive control) or in 0.9% saline solution (negative control). […] The dye was finally extracted with 100 μl of an extraction solution and the optical density measured at 540 nm. The optical density measured correlates with the number of cells present in the wells.
The proliferation was calculated by the difference in absorbance between the cells having been incubated 24 hours with sodium caseinate samples, with serum-free medium, with medium containing serum or with 0.9% saline solution and the cells before incubation.
The difference in absorbance ΔA540 from the blank (cells incubated with serum-free medium) was normalized. The results were then expressed as percentage with respect to the blank. • Culture medium with serum: DMEM was supplemented with 10% decomplemented FCS and 1% Penicillin-Streptomycin. […]

Data set [2] deals with HT-29 cells. Description: Lactate dehydrogenase cytotoxicity test. Format: cell-based, human. The following applies: Table 4; HT-29, LDH released, 24 hours incubation. The source says: Lactate Dehydrogenase Cytotoxicity Test
Cell viability was rigorously measured according the manufacturer's recommendations (Roche Diagnostics). The test is based on the measurement of lactate dehydrogenase (LDH) activity released from the cytosol of damaged cells in the supernatant.
Most current assays for measuring cytotoxicity are based on alterations of plasma membrane permeability and the consequent release of cytoplasmic enzymes or the uptake of dyes, normally excluded by viable cells. We here chose to measure the lactate dehydrogenase (LDH) activity released from damaged cells.
In general terms: Release of lactate dehydrogenase indicates damage to the cell membrane.

Take sodium caseinate: in the data set with HT-29 cells [1] (HT-29 cells), the “antiproliferative activity (in words)” value was “no activity”. For the same substance, the “% prolif (percentage of OD at 540 nm with respect to the control (−serum))” value in the data set on HT-29 cells [1] (Table 2, HT-29, 24 hours incubation, 80 μg sample in 200 μl DMEM) is 93 +/− 12%; in the data set on HT-29 cells [1] (Table 3, HT-29, active fraction with or without heat / enzyme treatment (alcalase, proteinase A)), 93 +/− 7%. In addition, the “cytotoxic potential, percentage of OD at 490 nm with respect to the control (lysate); row head % prolif” value in the data set with HT-29 cells [2] is reported as 9 +/− 3%.
